In test [1] the test system is β2ARs in permeabilized A431 cells. Nature of the test: Phosphorylation of β2ARs in permeabilized A431 cells. In kind it is cell-based, human. As to conditions: 1 μM isoproterenol, absence of heparin. The procedure: FIG. 8. Phosphorylation of β2ARs in permeabilized A431 cells. […] FIG. 8A: Autoradiogram obtained after a 10-day exposure at −70° C. FIG. 8B: Transverse densitometric scan of the autoradiogram.
β2ARs in permeabilized A431 cells were phosphorylated as follows. Permeabilized cells (4×10^8) in 10 ml of KG-A buffer containing 1 mCi (1 Ci=37 GBq) of [γ-^32P]ATP were incubated with or without 1 μM (−)-isoproterenol (and other compounds as indicated) for 10 min at 37° C. All buffers used in these experiments contained 5 μg of soybean tryspin inhibitor, 5 μg of leupeptin, and 10 μg of benzamidine per ml and 0.1 mM phenylmethylsulfonyl fluoride. […] After three identical washing steps, crude membranes were prepared as above.
Aliquots of the samples (≈60 fmol of β2ARs) were desalted over Sephadex G-50 and incubated for 2 hr at 20° C. with 200 pM of the ligand with or without 10 μM alprenolol. Free ligand was removed by desalting as above, and the samples were irradiated with UV light for 3 min. The samples were loaded on the same gel as the samples described above.

Test [2] deals with adenylyl cyclase in membranes of A431 cells. Nature of the test: cells. To be noted: Homo sapiens. The protocol:
FIG. 5. […] Cells were incubated for 10 min with (desensitized) (●) or without (control) (◯) 1 μM (−)-isoproterenol as detailed. Adenylyl cyclase activities of membranes prepared from the cells were measured in the presence of various concentrations of (−)-isoproterenol and were expressed as percent of the activity in the presence of 10 mM NaF. […] Data are means±SEM of three independent experiments.
Desensitization of β2ARs in A431 cells was effected as follows. Permeabilized cells in KG-A buffer (or, for controls, intact cells in PBS) were incubated with or without 1 μM (−)-isoproterenol for 10 min or the indicated times (4×10^7 cells per ml). The incubation was terminated by addition of 10 vol of ice-cold KG buffer (or PBS, respectively), followed by centrifugation at 1000×g for 5 min. After three identical washes, cells were disrupted with a Polytron homogenizer in 5 mM Tris-HCl, pH 7.4/2 mM EDTA. Crude membranes were prepared by spinning the supernatant after low-speed centrifugation (1000×g for 5 min) at 40,000×g for 20 min.
Adenylyl cyclase activity in the membranes was determined as described by Salomon et al (Anal. Biochem. (1974) 58:541-548). The free Mg^2+ concentration in the assay was 4 mM.
Concentration-response curves were analyzed by nonlinear curve-fitting to the Hill equation as described (Lohse et al (1986) Mol. Pharmacol. 30:403-409). Adenylyl cyclase activity was expressed as the percentage of the activity in the presence of 10 mM NaF. Since NaF stimulates adenylyl cyclase via the stimulatory guanine nucleotide binding protein, Gs, this normalizes for effects that occur at the level of Gs or the cyclase (i.e., which effects represent heterologous desensitization). Desensitization was assessed by measuring the loss of maximal stimulation by isoproterenol [determined with 10 μM (−)-isoproterenol] and was calculated as [1−stimulation (desensitized)/stimulation (control)]×100. For example, a decrease from 60% to 40% of NaF-stimulated activity corresponds to a desensitization of [1−(40/60)]×100=33%.

The target of test [3] is T1, βAR kinase (Bos taurus, UniProt P21146).
T1 construct: βAR kinase was purified from bovine cerebral cortex; from tissue; host or cells: bovine cerebral cortex
T1 sequence (P21146 1-689): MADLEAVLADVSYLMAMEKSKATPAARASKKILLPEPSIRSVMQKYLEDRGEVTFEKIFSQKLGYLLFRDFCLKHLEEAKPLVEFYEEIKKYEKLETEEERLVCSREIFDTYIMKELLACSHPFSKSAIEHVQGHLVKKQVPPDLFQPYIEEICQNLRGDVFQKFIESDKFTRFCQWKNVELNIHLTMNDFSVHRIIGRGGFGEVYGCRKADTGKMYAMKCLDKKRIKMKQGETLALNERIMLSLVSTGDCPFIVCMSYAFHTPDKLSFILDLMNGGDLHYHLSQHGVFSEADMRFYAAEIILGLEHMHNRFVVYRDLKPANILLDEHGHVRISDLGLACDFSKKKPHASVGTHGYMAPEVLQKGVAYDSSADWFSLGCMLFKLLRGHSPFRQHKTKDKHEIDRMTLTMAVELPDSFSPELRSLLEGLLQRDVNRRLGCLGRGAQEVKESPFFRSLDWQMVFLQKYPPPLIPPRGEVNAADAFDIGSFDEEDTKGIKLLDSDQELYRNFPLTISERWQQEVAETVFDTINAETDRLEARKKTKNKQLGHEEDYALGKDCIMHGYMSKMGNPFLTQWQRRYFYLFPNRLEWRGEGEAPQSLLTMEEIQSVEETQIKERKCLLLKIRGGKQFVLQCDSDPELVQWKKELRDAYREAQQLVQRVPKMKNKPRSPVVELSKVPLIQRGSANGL
The test can be described thus: Phosphorylation of purified reconstituted β2ARs by purified βAR kinase (Example II). Format: biochemical, bovine. To be noted: 100 μM. The protocol:
FIG. 7. […] (Inset) Relevant section of a representative autoradiogram. Data are means±SEM of three independent experiments. […] Desensitization was measured as the percent loss of stimulation by 10 μM (−)-isoproterenol of adenylyl cyclase activity in membranes. […] Data are means±SEM of four independent experiments.
Purified β2ARs were inserted into phosphatidylcholine vesicles by chromatography on Extracti-gel, followed by polyethylene glycol treatment and centrifugation at 280,000×g for 90 min (Cerione et al (1984) Biochemistry 23:4519-4525). Phosphorylation of the reconstituted receptors by purified βAR kinase was done in the presence of 50 μM (−)-isoproterenol as described (Benovic et al (1987) J. Biol. Chem. 262:9026-9032). Subsequently, the samples were subjected to sodium dodecyl sulfate polyacrylamide gel electrophoresis on 10% gels (Laemmli (1970) Nature 227:680-685). The phosphorylated β2ARs were visualized by autoradiography, and the corresponding bands were cut out and their content of ^32P quantified.

Test [4] has as its system β2ARs in intact A431 cells. Nature of the test: Desensitization of β2ARs in intact A431 cells. To be noted: data not shown. Format: cell-based, human.
Test [5] has as its target T1, βAR kinase. The test can be described thus: Inhibition of β2AR phosphorylation by βAR kinase by synthetic peptides (Example III). To be noted: β2AR as substrate; read-out: IC50 (μM), first intracellular loop peptides as inhibitors of βAR kinase. In kind it is biochemical, bovine. The procedure: FIG. 13. Inhibition of β2AR phosphorylation by synthetic peptides. Reconstituted β2AR (˜0.4 pmol) was incubated for 30 min at 30° with purified βAR kinase (˜30 ng) in the presence of 50 mM Tris-HCl, pH 7.5, 2 mM EDTA, 10 mM NaCl, 5 mM MgCl2, 5 mM sodium phosphate, 50 μM (−)-isoproterenol and 0.10 mM [γ^32P]ATP (2.0 cpm/fmol). Synthetic β2AR peptides were varied from 0 to 1 mM and included CI (Δ), CII (▴), CIII-2 (◯) and CT-1 (●). Reactions were stopped by the addition of […]. ^32P-labeled receptor was determined by cutting and counting the dried gel following autoradiography.
The β2-adrenergic receptor from hamster lung was purified to apparent homogeneity by sequential affinity and high performance liquid chromatography as described (Benovic et al (1984) Biochemistry 23:4510-4518). The purified receptor was reinserted into phosphatidylcholine vesicles as previously described (Cerione et al (1983) Nature 306:562-566). The protein-lipid pellets were resuspended in 20 mM Tris-HCl, pH 7.2, 2 mM EDTA and used as a substrate for the βAR kinase.
βAR kinase was purified from bovine cerebral cortex by modification of a previously described procedure (Benovic et al (1987) J. Biol. Chem. 262:9026-9032). Briefly, 250 g of bovine cortex was homogenized and the resulting high speed supernatant fraction was precipitated with 13-26% ammonium sulfate. This material was initially chromatographed on an Ultrogel AcA34 column equilibrated with 5 mM Tris-HCl, pH 7.5, 2 mM EDTA, 5 μg/ml leupeptin, 5 μg/ml pepstatin, 15 μg/ml benzamidine, 0.2 mM phenylmethyl sulfonyl fluoride (buffer A). The peak activity was diluted 1:1 with buffer A containing 0.02% triton X-100 and applied to a DEAE Sephacel column. Elution was accomplished with a 0-80 mM NaCl gradient in buffer A containing triton X-100. The peak activity was then applied directly to a CM Fractogel column and eluted with a 0-100 mM NaCl gradient in buffer A containing triton X-100. The purified kinase was stored at 4° C.
The inhibition of substrate phosphorylation by βAR kinase in the presence of synthetic peptides was assayed as follows. Reconstituted βAR (0.2-1 pmol/inclubation) was incubated with βAR kinase (10-30 ng) in a buffer containing 50 mM Tris-HCl, pH 7.5, 2 mM EDTA, 10 mM NaCl, 5 mM MgCl2, 5 mM sodium phosphate, 50 μM (−)-isoproterenol, 0.10 mM [γ-^32P]ATP (1-3 cpm/fmol) at 30° C. for 30 min. Synthetic β2AR peptides were varied in concentration from 0 to 2 mM. Reactions were quenched by the addition of SDS sample buffer followed by gel electrophoresis. In some experiments urea treated rod outer segments (Wilden et al (1982) Biochemistry 21:3014-3022; Shichi et al (1978) J. Biol. Chem. 253:7040-7046) were used as the substrate for βAR kinase. To further define the specificity of the peptide inhibition, phosvitin, casein (see Example I) and the synthetic peptides CT-2 and CT-3 were used as substrates for βAR kinase.
SDS polyacrylamide gel electrophoresis was performed by the method of Laemmli (Nature (1970) 227:[…]) using 10 or 15% homogeneous slab gels. SDS sample buffer contained 8% SDS, 10% glycerol, 5% β-mercaptoethanol, 25 mM Tris-HCl, pH 6.5 and 0.003% bromphenol blue. SDS urea polyacrylamide gel electrophoresis was carried out using 6.5 M urea, 0.1% SDS, 100 mM H3PO4, pH 6.8 with Tris-HCl and 9% acrylamide (Swank et al (1971) Anal. Biochem. 39:462). SDS urea sample buffer contained 1% SDS, 8M urea, 10 mM H3PO4, pH 6.8 with Tris-HCl, 1% β-mercaptoethanol and 0.003% bromphenol blue.

In test [6] the test system is β2ARs in permeabilized A431 cells. The test can be described thus: Desensitization of β2ARs in permeabilized A431 cells. Format: cell-based, human. The procedure:
Permeabilization of cells was accomplished as follows. Human epidermoid carcinoma A431 cells were grown to about 95% confluence in Dulbecco's modified Eagle's medium supplemented with 10% fetal calf serum. Cells were harvested with collagenase, washed three times with calcium-free phosphate-buffered saline (PBS), then washed twice in 150 mM potassium glutamate/10 mM Hepes/5 mM EGTA/7 mM MgCl2, pH 7.1 (KG buffer), and finally resuspended in KG buffer supplemented with 5 mM glucose and 2 mM ATP (KG-A buffer) at a density of 4×10^7 cells per ml.
At 4×10^7 cells per ml, about 0.015% digitonin was necessary to achieve permeabilization of >95% cells as assessed by staining with trypan blue. In all experiments, digitonin was added stepwise until >95% of the cells were trypan blue positive.

Read-outs that look alike come from different tables or passages of the source. No end group written: not given here.

The EC50 is the concentration that produces a half-maximal response. In the case of `CC(C)NC[C@H](O)c1ccc(O)c(O)c1` [isoproterenol, (−)-isoproterenol], the “increase in the phosphorylation of the β2ARs” value in test [1] is 5 fold. The Emax in test [2] (A-431, 10 min, read-out: desensitization (loss of maximal stimulation), 1 μM isoproterenol 10 min 37° C., both intact and permeabilized cells) was ~30%; in test [2] (A-431, read-out: Emax, maximal stimulation over basal in percent of activity with 10 mM NaF, control intact cells), 56%; in test [2] (A-431, read-out: Emax, maximal stimulation over basal in percent of activity with 10 mM NaF, control permeabilized cells), 62%; in test [2] (A-431, read-out: Emax, maximal stimulation over basal in percent of activity with 10 mM NaF, desensitized intact cells), 40%; in test [2] (A-431, read-out: Emax, maximal stimulation over basal in percent of activity with 10 mM NaF, desensitized permeabilized cells) it was 43%. Further, the EC50 in test [2] (A-431, read-out: EC50, adenylyl cyclase stimulation, control intact cells) turned out to be 200 nM; in test [2] (A-431, read-out: EC50, adenylyl cyclase stimulation, control permeabilized cells) it was 130 nM; in test [2] (A-431, read-out: EC50, adenylyl cyclase stimulation, desensitized intact cells) it was 300 nM; in test [2] (A-431, read-out: EC50, adenylyl cyclase stimulation, desensitized permeabilized cells) it was 190 nM.
Usually inhibition stands for the relative decrease from the control value, in per cent. Read a high inhibition as strong suppression. Broadly, the IC50 is the concentration at which inhibition is half-maximal. The compound AIAKFERLQTVTNYF [β2AR-(57-71)] came in with an inhibition at 100 µM in test [3] of 80 ± 13%. The “effect on desensitization in intact cells” value in test [4] is “Neither compound affected desensitization”. In addition, in test [5], the IC50 is 62 µM. The “Inhibition of Desensitization, %” value in test [6] (100 μM) worked out at 52 ± 12%. The “effect on time course of desensitization” value in test [6] (100 μM peptide, 1 μM (−)-isoproterenol) is “markedly slowed the rate of desensitization”.

These data come from patent US6605424B1, “Method of detecting inhibitors of agonist-specific desensitization” (Duke University, priority 1989, dated 2003).
